In paper PMC6566077 (Chemical Science, 2019):
In brackets after ≈: the same amount, converted by molar mass. Like-named read-outs stand apart in the source and are kept apart here.

Assays:
[1] = assay type: binding; details: for BLI binding to boronic acid functionalised sensor: components 0-100 µg/mL; for Kd: BLI, steady-state model, boronic acid functionalised sensor
M. tuberculosis H37Rv [2] = assay type: cell-based, Mycobacterium tuberculosis H37Rv; details: for Outcome, interaction profile with Meropenem / ΣFIC, interaction profile with Meropenem: M. tuberculosis H37Rv, checkerboard; for Interaction with meropenem in checkerboard assay (words, Figure S7): representative checkerboard images
Jurkat E6.1 cells = assay: Cytotoxicity assay (resazurin, 24 h); assay type: cell-based, human; details: 24 h exposure, viability by resazurin
Haemolysis assay = assay type: cell-based; details: sheep, ovine red blood cells, versus 100% lysis with lysis buffer
Description: (§1) Following incubation for 24 hours at
(§2) at 570 nm (BioTek Synergy HT microplate reader). All assays were undertaken with 3 independent experimental
(§3) Two-fold serial dilutions were then carried out diluting
(§4) 100 μL of ovine blood was
(§5) HT Microplate Reader). […] All assays
(§6) were undertaken with 3 independent experimental repeats.
(§7) DMSO compounds for compounds 3, 6 and 8.
(§8) Following addition of the
(§9) red colouring across whole well = agglutination). All assays were undertaken with three independent experimental

Mycobacterium smegmatis = assay: microbe, parasite or virus in culture; assay type: cell-based, Mycobacterium smegmatis MC2155; details: for MIC: Mycolicibacterium smegmatis, read-out: MIC Mycobacteria, Mycobacterium smegmatis
A549 cells [3] = assay: Cytotoxicity assay (resazurin, 24 h); details: 24 h exposure, viability by resazurin
Escherichia coli = assay: microbe, parasite or virus in culture; assay type: cell-based, Escherichia coli (Top 10)
[4] = tested on: ConA mediated agglutination of ovine blood; assay type: cell-based
Pseudomonas putida = assay: microbe, parasite or virus in culture; assay type: cell-based
M. tuberculosis H37Rv [5] = assay type: cell-based, Mycobacterium tuberculosis H37Rv; details: checkerboard
[6] = tested on: Mycobacterium tuberculosis; assay: microbe, parasite or virus in culture; assay type: cell-based, Mycobacterium tuberculosis H37Rv
Mycobacterium bovis BCG = assay: microbe, parasite or virus in culture; assay type: cell-based; details: for MIC: Mycobacterium tuberculosis variant bovis BCG, BCG, read-out: MIC Mycobacteria, Mycobacterium bovis BCG
Caco-2 cells = assay: Cytotoxicity assay (resazurin, 24 h); assay type: cell-based, human; details: 24 h exposure, viability by resazurin
[7] = tested on: Mycobacterium tuberculosis H37Rv; assay: Minimum bactericidal concentration (MBC), CFU plating; assay type: cell-based; details: actively growing M. tuberculosis H37Rv, lowest concentration with no CFUs
ovine red blood cells = assay: Haemolysis assay; assay type: cell-based; details: 1 hour, tested at 12.5 mM due to solubility issues
Description: as §1, §2, §3, §4, §5, §6, §7, §8, §9

A549 cells [8] = tested on: A549 cells
[9] = Escherichia coli; read-out: MIC Gram-negative, Escherichia coli
[10] = Pseudomonas putida; read-out: MIC Gram-negative, Pseudomonas putida
[11] = Mycobacterium tuberculosis; M. tuberculosis H37Rv, compound alone, REMA checkerboard (Table S3); read-out: MIC
[12] = Mycobacterium tuberculosis; read-out: MIC Mycobacteria, Mycobacterium tuberculosis

Compound: mycolic acid methyl esters [MAMEs]
- BLI binding to boronic acid functionalised sensor [1]: no detectable binding

Compound: Trehalose Monomycolate [TMM]
- Kd ([1]; read-out: Kd): 12 µM
- BLI binding to boronic acid functionalised sensor [1]: interacted strongly

Compound: monosialodihexosylganglioside [GM3, reference compound]
- BLI binding to boronic acid functionalised sensor [1]: no detectable binding

Compound: O=C(NCCNC(=O)c1cccc(B(O)O)c1)c1cccc(B(O)O)c1 [Compound 4, N,N'-(ethylenediamine)bis(3-phenylboronic acid)amide]
- Outcome, interaction profile with Meropenem (M. tuberculosis H37Rv [2]): Additive (values in between correspond to additivity)
- ΣFIC, interaction profile with Meropenem (M. tuberculosis H37Rv [2]): 1
- Jurkat (MIC99) (Jurkat E6.1 cells): 12.5 mM
- hemolysis at 1 h (Haemolysis assay): 0%
- MIC (Mycobacterium smegmatis): 3.13 mM (≈ 1110 µg/mL)
- A549 (MIC99) (A549 cells [3]): 25 mM
- MIC (Escherichia coli; [9]): > 25 mM
- ConA agglutination [4]: No inhibition
- MIC (Pseudomonas putida; [10]): > 25 mM
- Outcome, interaction profile with Rifampicin (M. tuberculosis H37Rv [5]): Additive (values in between correspond to additivity)
- ΣFIC, interaction profile with Rifampicin (M. tuberculosis H37Rv [5]): 2
- MIC [6, 11]: 3.13 mM
- MIC [6, 12]: 1.56 to 3.13 mM (≈ 555 to 1110 µg/mL)
- MIC (Mycobacterium bovis BCG): 0.78 mM (≈ 278 µg/mL)
- Caco-2 (MIC99) (Caco-2 cells): 50 mM
- MBC [7]: 6.25 mM (≈ 2220 µg/mL)

Compound: lipopolysaccharide [LPS, reference compound]
- BLI binding to boronic acid functionalised sensor [1]: weak binding

Compound: OB(O)c1ccccc1 [Compound 1, reference compound]
- hemolysis at 1 h (Haemolysis assay): 0%
- MIC (Mycobacterium smegmatis): 12.5 to 25 mM (≈ 1520 to 3050 µg/mL)
- A549 (MIC99) (A549 cells [3]): 50 mM
- MIC (Escherichia coli; [9]): 25 mM (≈ 3050 µg/mL)
- MIC (Pseudomonas putida; [10]): 12.5 to 25 mM (≈ 1520 to 3050 µg/mL)
- MIC [6, 12]: 6.25 to 12.5 mM (≈ 762 to 1520 µg/mL)
- MIC (Mycobacterium bovis BCG): 3.13 mM (≈ 382 µg/mL)

Compound: O=C(CCN(CCOCCOCCN(CCC(=O)NCCOCCOCCNC(=O)c1cccc(B(O)O)c1)CCC(=O)NCCOCCOCCNC(=O)c1cccc(B(O)O)c1)CCC(=O)NCCOCCOCCNC(=O)c1cccc(B(O)O)c1)NCCOCCOCCNC(=O)c1cccc(B(O)O)c1 [Compound 8, 2,2’-(Ethylenedioxy)bis(ethylamine) G1 PAMAM tetra(3-phenylboronic acid)amide dendrimer]
- Haemolysis (%) (ovine red blood cells): 4.5%
- MIC Mycobacteria, Mycobacterium smegmatis (Mycobacterium smegmatis): 0.78 mM (≈ 1210 µg/mL)
- A549 (MIC99) (A549 cells [8]): > 25 mM
- MIC Gram-negative, Escherichia coli (Escherichia coli): >25 mM
- MIC Gram-negative, Pseudomonas putida (Pseudomonas putida): >25 mM
- MIC Mycobacteria, Mycobacterium tuberculosis [6]: 0.78 to 1.56 mM
- MIC against Mtb [6]: 0.78 mM (≈ 1210 µg/mL)
- MIC Mycobacteria, Mycobacterium bovis BCG (Mycobacterium bovis BCG; resazurin reduction microtitre plate assay): 1.56 mM (≈ 2420 µg/mL)

Compound: Lipomannan [LM]
- BLI binding to boronic acid functionalised sensor [1]: interacted strongly

Compound: O=C(O)c1cccc(B(O)O)c1 [Compound 2, reference compound]
- hemolysis at 1 h (Haemolysis assay): 4.5%
- MIC (Mycobacterium smegmatis): 12.5 to 25 mM (≈ 2070 to 4150 µg/mL)
- A549 (MIC99) (A549 cells [3]): > 25 mM
- MIC (Escherichia coli; [9]): > 25 mM
- MIC (Pseudomonas putida; [10]): 12.5 to 25 mM (≈ 2070 to 4150 µg/mL)
- MIC [6, 12]: 6.25 to 12.5 mM (≈ 1040 to 2070 µg/mL)
- MIC (Mycobacterium bovis BCG): 12.5 mM (≈ 2070 µg/mL)

Compound: CC1(C)[C@H](C(=O)O)N2C(=O)C[C@H]2S1(=O)=O [Sulbactam, reference compound]
- Outcome, interaction profile with Meropenem (M. tuberculosis H37Rv [2]): Synergistic (ΣFICs of ≤0.5 designate synergistic activity)
- ΣFIC, interaction profile with Meropenem (M. tuberculosis H37Rv [2]): 0.313
- ΣFIC, interaction profile with Meropenem (M. tuberculosis H37Rv [2]; listed as sulbactam): 0.3
- Interaction with meropenem in checkerboard assay (words, Figure S7) (M. tuberculosis H37Rv [2]): synergistic activity
- MIC [6, 11]: 0.134 mM

Compound: Galactan [reference compound]
- BLI binding to boronic acid functionalised sensor [1]: no binding was observed

Compound: Phosphatidylinositol Mannoside 6 [PIM6]
- BLI binding to boronic acid functionalised sensor [1]: weak binding affinity

Compound: Phosphatidylinositol Mannosides 1 & 2 [PIM 1 + 2]
- BLI binding to boronic acid functionalised sensor [1]: very weak binding

Compound: dextran [reference compound]
- BLI binding to boronic acid functionalised sensor [1]: no binding was observed

Compound: O=C(NCCCOCCOCCOCCCNC(=O)c1cccc(B(O)O)c1)c1cccc(B(O)O)c1 [Compound 6, N,N'-(4,7,10-trioxa-1,13-tridecanediamine)bis(3-phenylboronic acid)amide]
- Outcome, interaction profile with Meropenem (M. tuberculosis H37Rv [2]): Additive (values in between correspond to additivity)
- ΣFIC, interaction profile with Meropenem (M. tuberculosis H37Rv [2]): 0.625
- Interaction with meropenem in checkerboard assay (words, Figure S7) (M. tuberculosis H37Rv [2]): additivity
- Jurkat (MIC99) (Jurkat E6.1 cells): 25 mM
- hemolysis at 1 h (Haemolysis assay): 0%
- MIC (Mycobacterium smegmatis): 3.13 mM (≈ 1620 µg/mL)
- A549 (MIC99) (A549 cells [3]): 25 mM
- MIC (Escherichia coli; [9]): > 25 mM
- ConA agglutination [4]: No inhibition
- MIC (Pseudomonas putida; [10]): > 25 mM
- Outcome, interaction profile with Rifampicin (M. tuberculosis H37Rv [5]): Additive (values in between correspond to additivity)
- ΣFIC, interaction profile with Rifampicin (M. tuberculosis H37Rv [5]): 2
- MIC [6, 11]: 1.56 mM
- MIC [6, 12]: 1.56 to 3.13 mM (≈ 805 to 1620 µg/mL)
- MIC (Mycobacterium bovis BCG): 0.78 to 1.56 mM (≈ 403 to 805 µg/mL)
- Caco-2 (MIC99) (Caco-2 cells): 25 mM
- MBC [7]: 6.25 mM (≈ 3230 µg/mL)

Compound: Lipoarabinomannan [LAM]
- Kd [1]: 41.5 μg mL^–1
- BLI binding to boronic acid functionalised sensor [1]: interacted strongly

Compound: O=C(NCCOCCOCCNC(=O)c1cccc(B(O)O)c1)c1cccc(B(O)O)c1 [Compound 5, N,N'-(2,2-(ethylenedioxy)bis(ethylamine))bis(3-phenylboronic acid)amide]
- Outcome, interaction profile with Meropenem (M. tuberculosis H37Rv [2]): Additive (values in between correspond to additivity)
- ΣFIC, interaction profile with Meropenem (M. tuberculosis H37Rv [2]): 0.625
- Jurkat (MIC99) (Jurkat E6.1 cells): 12.5 mM
- hemolysis at 1 h (Haemolysis assay): 0%
- MIC (Mycobacterium smegmatis): 3.13 mM (≈ 1390 µg/mL)
- A549 (MIC99) (A549 cells [3]): 25 mM
- MIC (Escherichia coli; [9]): > 25 mM
- ConA agglutination [4]: No inhibition
- MIC (Pseudomonas putida; [10]): > 25 mM
- Outcome, interaction profile with Rifampicin (M. tuberculosis H37Rv [5]): Additive (values in between correspond to additivity)
- ΣFIC, interaction profile with Rifampicin (M. tuberculosis H37Rv [5]): 2
- MIC [6, 11]: 3.13 mM
- MIC [6, 12]: 1.56 to 3.13 mM (≈ 693 to 1390 µg/mL)
- MIC (Mycobacterium bovis BCG): 0.78 to 1.56 mM (≈ 346 to 693 µg/mL)
- Caco-2 (MIC99) (Caco-2 cells): 50 mM
- MBC [7]: 6.25 mM (≈ 2780 µg/mL)

Compound: O=C(NCCOCCOCCOCCOCCOCCOCCOCCOCCOCCOCCOCCOCCOCCOCCOCCOCCOCCOCCOCCOCCOCCOCCOCCNC(=O)c1cccc(B(O)O)c1)c1cccc(B(O)O)c1 [Compound 7, N,N'-(polyoxyethylenebis(amine))bis(3-phenylboronic acid)amide]
- MIC (Mycobacterium smegmatis): 25 mM (≈ 34200 µg/mL)
- MIC (Escherichia coli; [9]): > 25 mM
- MIC (Pseudomonas putida; [10]): > 25 mM
- MIC (Mycobacterium bovis BCG): > 25 mM

Compound: O=C(O)c1ccc(B(O)O)cc1 [Compound 3, reference compound]
- hemolysis at 1 h (Haemolysis assay): 0.9%
- MIC (Mycobacterium smegmatis): 25 mM (≈ 4150 µg/mL)
- A549 (MIC99) (A549 cells [3]): > 25 mM
- MIC (Escherichia coli; Escherichia coli, read-out: MIC Gram-negative, Escherichia coli): > 25 mM
- MIC (Pseudomonas putida; Pseudomonas putida, read-out: MIC Gram-negative, Pseudomonas putida): 25 mM (≈ 4150 µg/mL)
- MIC ([6]; Mycobacterium tuberculosis, read-out: MIC Mycobacteria, Mycobacterium tuberculosis): 6.25 mM (≈ 1040 µg/mL)
- MIC (Mycobacterium bovis BCG): 6.25 mM (≈ 1040 µg/mL)

Compound: Trehalose Dimycolate [TDM]
- Kd ([1]; read-out: Kd): 4 µM
- BLI binding to boronic acid functionalised sensor [1]: interacted strongly
